The test system of one data set is MRSA biofilm. Nature of the data set: Biofilm inhibition assay, crystal violet. The format is cell-based, Methicillin-resistant Staphylococcus aureus. As to the method: Plates were placed in a static incubator at 37 °C for 48 h; the time required for untreated wells to form biofilm. After incubation, treated media was removed and wells were rinsed with 155 µL of PBS to remove planktonic cells. After sufficient air drying of wells, 150 µL of 0.1% Crystal violet stain was added to each well and incubated at room temperature for 30 min, after which, dye was removed and wells were rinsed again with 155 µL of PBS. After sufficient drying of wells, 150 µL of 70% ethanol solution was added to each well and incubated at room temperature for 30 min. After 30 min, 100 µL of each well was added to a new 96-well plate and absorbance was measured at an OD of 590 nm.

Data set [1] has as its system pre-formed S. typhimurium biofilm. Description: Pre-formed biofilm destruction assay, crystal violet. The settings on record: 64 µg/mL, 3 h treatment, crystal violet. The class given is cell-based, Salmonella typhimurium. As to the method: To test the destruction of preformed biofilms, in a 96-well plate, 15 µL of overnight culture, of either E. coli, S. typhimurium, or MRSA, was added to 150 µL of minimal salt media (40 mM […]; 22 mM KH2PO4; […] NH4CL; 740 mM NaCl; 2 mM MgSO4; 0.1 mM CaCl2; 22 mM supplemented with D-Glucose) in each well. Plates were placed in a static incubator at 37 °C for 48 h; the time required for untreated wells to form biofilm. After formation, minimal salt media was removed and wells were treated with 155 µL of minimal salt media containing PG-1 or SynPG-1. […] Plates were placed in a static incubator at 37 °C for 3 h. After 3 h, treated media was removed and wells were rinsed with 155 µL of PBS to remove planktonic cells. After sufficient drying of wells, 150 µL of 0.1% crystal violet stain was added to each well and incubated at room temperature for 30 min, after which dye was removed and wells were rinsed again with 155 µL of PBS. After sufficient drying of wells, 150 µL of 70% ethanol solution was added to each well and incubated at room temperature for 30 min. After 30 min, 100 µL of each well was added to a new 96-well plate and absorbance was measured at an OD of 590 nm.

The subject of a further data set is MRSP. The class given is cell-based, Methicillin-resistant Staphylococcus pseudointermedius. The settings on record: 2 h, pH 7. The method, then:
(§1) Veterinary clinical isolates, including Salmonella typhimurium, multi-drug resistant Escherichia coli, methicillin-resistant Staphylococcus aureus (MRSA), and methicillin-resistant Staphylococcus pseudointermedius (MRSP), were kindly provided by Dr. H. Cai (Department of Pathobiology, University of Guelph, ON, Canada). An antibiogram for these strains is available in the supplementary text (Table S1). Gram-negative strains were cultured in Luria−Bertani (LB) broth. Gram-positive strains were cultured in Tryptic soy broth (TSB). Both cultures were grown under aerobic conditions at 37 °C.
(§2) The minimum bactericidal concentration (MBC) of SynPG-1 against the tested pathogens was identified through a broth macrodilution antimicrobial assay as previously described, with some modification. […] The buffer volume was adjusted to accommodate the addition of SynPG-1 and PG-1 so that the final solution volume was 0.5 mL for each tested concentration. Final peptide concentrations ranged from 0.1 µg/mL to 8 µg/mL. PG-1 at the known MBC (2 µg/mL E. coli; 4 µg/mL S. typhimurium; 0.5 µg/mL MRSP; 0.5 µg/mL MRSA) was considered the in-house positive control, while the suspension containing no peptide was considered the negative control. Experimental and control tubes were incubated for 2 h at 37 °C without shaking to allow for bactericidal action to occur. […] Colony numbers from each plate were recorded. […]

For data set [2] the following is noted: 25% porcine intestinal fluid (pH 6.5) in PBS, 1 mg/mL peptide, 1 h 37 °C with shaking; residual activity vs E. coli at 20 µg/mL, colony count; three independent experiments.
Experimental: Porcine digestive fluids were collected, as previously described by Wang et al. [44]. […] The gastrointestinal tract was kept at 4 °C during dissection, and collection of contents from the stomach and upper small intestine (duodenum and jejunum) was conducted within 5 h of sacrifice. Contents were centrifuged at 10,000 rpm (9600× g) for 10 min at 4 °C, and supernatant fluid was collected and stored at −80 °C until its use in the stability experiment. The pH of the collected supernatants were 3.5 and 6.5 for gastric fluid and duodenum fluid, respectively.
Procedures similar to those used by Egger et al. [45] were used for this experiment. […] Suspension containing no peptide was considered the negative control. After incubation, 10 µL of the incubated solutions was added for a total volume of 0.5 mL, consisting of 20 µL of mid-logarithmic phase E. coli cells, diluted to a concentration of about 1 × 10^5 CFU/mL, and 470 µL of 20 mM sodium phosphate buffer (pH 7). […] Stability in porcine digestive fluid was evaluated as the relative colony growth on plates from bacterial grown with digestive fluid and peptide treatments, in comparison to plates grown from bacteria grown with digestive fluid alone.
Stability was evaluated by comparing the mean growth of colonies on plates treated with peptides incubated in digestive fluids to colonies grown when treated without peptide. […]
The next data set concerns MRSA. The class given is cell-based, Methicillin-resistant Staphylococcus aureus. The settings on record: 2 h, pH 7. As to the method: as §1, §2
Another data set deals with IPEC-J2 cells. Description: In vitro cell migration, transwell assay. The class given is cell-based, porcine. The settings on record: transwell 8-micron, serum-free DMEM F-12, 5 to 20 µg/mL, 16 h, Hoechst 33342 count; SynPG-1 not significant at higher concentrations. The method, then: A cell line, established from intestinal porcine enterocytes, isolated from the jejunum of a neonatal unsuckled piglet (IPEC-J2 cells, DSMZ), was grown in monolayer culture in Dulbecco’s modified Eagle’s medium (high glucose), supplemented with 10% fetal bovine serum (FBS) from Invitrogen, 100 IU/mL penicillin, and 100 µg/mL streptomycin. Cultures were maintained in a 5% CO2 humidified atmosphere at 37 °C and passaged every 2–3 days, with detachment via the Trypsin-EDTA solution (Sigma).
To evaluate migration of IPEC-J2 cells, 8-micron pore-sized cell culture transwell inserts were used (Millipore Inc, Temecula, CA, USA). A total of 1 × 10^5 cells were plated in the upper inserts of the transwell and placed within 24-well plates, containing serum-free DMEM F-12 in the absence and presence of SynPG-1 or PG-1, at concentrations ranging from 5 µg/mL to 20 µg/mL. After incubation for 16 h, the cells were fixed with 4% (w/v) paraformaldehyde. […] Migration was quantified by cell enumeration through Hoechst 33342 staining of cell nuclei (Thermo Fisher Scientific, Mississauga, ON, Canada). The results are represented as the relative fold increase in migrated cells when compared to the baseline migration of IPEC-J2 cells in serum-free media after 16 h.

A further data set concerns A. baumanni biofilm. The settings on record: tested alone or with an antibiotic; reduction in crystal violet staining only; cited from earlier work. The source says:
Although many have studied the antimicrobial potential of PG-1, its anti-biofilm properties have only been tested against a few species, including Streptococcus mutans and Acinetobacter baumanni. Since the composition of the extracellular polymeric substance (EPS) of a biofilm can vary widely from species to species, further investigation into the PG-1′s spectrum of antibiofilm activity is necessary. To do so, we evaluated the effect of PG-1 and SynPG-1 on the disruption and formation of biofilms from three pathogenic MDR bacteria and measured the remaining viable pathogens. ...

Consider `CC(C)C[C@H](NC(=O)[C@H](CCCNC(=N)N)NC(=O)CNC(=O)CNC(=O)[C@@H](N)CCCNC(=N)N)C(=O)N[C@H]1CSSC[C@@H](C(=O)N[C@H](C(=O)NCC(=O)N[C@@H](CCCNC(=N)N)C(N)=O)C(C)C)NC(=O)[C@H](C(C)C)NC(=O)[C@@H]2CSSC[C@H](NC(=O)[C@H](Cc3ccc(O)cc3)NC1=O)C(=O)N[C@@H](CCCNC(=N)N)C(=O)N[C@@H](CCCNC(=N)N)C(=O)N[C@@H](CCCNC(=N)N)C(=O)N[C@@H](Cc1ccccc1)C(=O)N2` [PG-1, Protegrin-1], for which the “Concentration at which inhibition of biofilm formation was seen” value in the data set with MRSA biofilm (minimal salt media, 48 h 37 °C static, crystal violet OD 590 nm, p < 0.05 vs control, concentration dependent) came to 8 µg/mL. In the data set on MRSA biofilm (same concentration as SynPG-1 onset (2 µg/mL), crystal violet, 48 h), the “Effect on biofilm formation at the concentration where SynPG-1 began to reduce it” value was “significant promotion of biofilm formation”. In addition, the “Effect on pre-formed biofilm at 64 µg/mL” value in data set [1] is given as “did not demonstrate a significant reduction”. The MBC against MRSP and with MRSA was 0.5 (0.18) μg/mL each time. Further, the “Antimicrobial activity after incubation in 25% porcine intestinal fluid” value in data set [2] is reported as “mean % growth of control increased for SynPG-1 but not PG-1”. The “Concentration at which cell migration increased significantly” value in the data set on IPEC-J2 cells is recorded as 20 µg/mL. Moreover, in the data set on A. baumanni biofilm, the Antibiofilm activity entry is given as “no antibiofilm activity”.

The values above are taken from PMC7407491, “The Addition of a Synthetic LPS-Targeting Domain Improves Serum Stability While Maintaining Antimicrobial, Antibiofilm, and Cell Stimulating Properties of an Antimicrobial Peptide” (Biomolecules, 2020).
